Test results as given in US9067974B2, “Polymyxin derivatives and uses thereof” (priority 2006, dated 2015).
Bridge positions count the residues as written; N and C are the ends. Square brackets hold non-standard residues; d marks the D form. Peptide text beside a SMILES is read from it. * marks the point of attachment. Octanoyl = CCCCCCCC(=O)*; Dab = NCC[C@H](N)C(=O)O; Abu = CC[C@H](N)C(=O)O

Experiments:
S. maltophilia ATCC17444 = test: E-test MIC of antibiotics on Mueller-Hinton agar with or without NAB7061 (4 μg/ml); sensitization factor = MIC ratio absence/presence; format: cell-based
Method: (§1) MICs were determined by using E-strips (Biodisk Ltd., Solna, Sweden) according to the manufacturer's instructions.
(§2) The strains originated from ATCC (11 strains), CCUG (11 strains), and NCTC (The National Collection of Type Cultures, Colindale, U.K.; 2 strains). Eight strains (the F-strains) were purchased from Mobidiag Ltd., Helsinki, Finland. The source of E. coli IH3080 has been given in Example 2. Sensitization factor was defined as in Example 7.

[1] = Two-week intravenous toxicity study in young rats; format: in vivo
Method: Toxicity in young rats (weighing approx. 150 g in the beginning of the study) was determined by administering doses (1, 2, 4, 8, 16, and 32 mg/kg per day) of NAB7061 as well as the control compound polymyxin B intravenously twice (2) a day for two weeks. A group of ten (10) rats was studied for each dosis regimen. Clinical observations were made daily, the body weight measured twice weekly, and the food consumption twice weekly. In the end of week 2, all animals were sacrificed.
Histopathology of kidneys was performed for each animals and histopathology of all tissues was performed in three high-dose groups receiving NAB7061.

E. coli IH3080 (K1:O18) = test: Experimental E. coli peritonitis model in mice; format: in vivo; settings: 4.5 h postinfection ([…] after the treatment), 5 mg/kg subcutaneous
Method: A suspension of E. coli IH3080 (K1:O18) in saline (0.9% NaCl) was prepared from an overnight culture on a blood agar plate (Statens Serum Institut, Copenhagen, Denmark). All mice (female NMR1 from Harlan Scandinavia, Allerød, Denmark; weight, 25-30 g) were inoculated intraperitoneally with 0.5 ml of the suspension containing 0.96×10^6 CFU per ml in the lateral lower quadrant of the abdomen. At 1 h, the CFU count was determined from three mice and the remaining mice (four mice per group) were treated with a subcutaneous injection of 0.2 ml of erythromycin solution in saline (corresponding to 5 mg/kg body weight) or NAB7061 solution in saline (corresponding to 5 mg/kg body weight), or both erythromycin and NAB7061 (corresponding to 5 mg/kg body weight of both drugs; given at two separate sites). Control group received two 0.2 ml injections of saline. At 4.5 h postinfection, all mice were anaesthetized with CO2 and sacrificed. Sterile saline (2 ml) was injected intraperitoneally and the abdomen was gently massaged before it was opened and the fluid sampled. Appropriate dilutions of the fluid were plated on blood agar plates, the plates were incubated overnight, and the colonies were counted.

[2] = test system: E. coli (ATCC25922 and IH3080), K. pneumoniae ATCC13883, and E. cloacae ATCC23355; test: E-test sensitization by NAB7061 (4 μg/ml), summary over the tested strains of Table 7; format: cell-based; settings: range over the tested strains
Method: as §1

A. baumannii ATCC 19606 = test: Sensitization to rifampin: well diffusion growth inhibition on LB plates containing rifampin; format: cell-based, Acinetobacter baumannii; settings: 4 μg of compound
E. cloacae F230 = test: E-test MIC of antibiotics on Mueller-Hinton agar with or without NAB7061 (4 μg/ml); sensitization factor = MIC ratio absence/presence; format: cell-based, Enterobacter cloacae
Method: as §1, §2

E. cloacae CCUG52947 = test: as above; format: cell-based, Enterobacter cloacae
Method: as §1, §2

E. cloacae F232 = test: as above; format: cell-based, Enterobacter cloacae
Method: as §1, §2

S. marcescens ATCC8100 = test: as above; format: cell-based, Serratia marcescens
Method: as §1, §2

[3] = test system: Acinetobacter baumannii ATCC 19606; test: Well diffusion growth inhibition on LB agar plates (direct antibacterial activity); format: cell-based; settings: A. baumannii ATCC 19606
Procedure, shortened: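 Direct antibacterial activity against Acinetobacter baumannii ATCC 19606 was measured by agar well diffusion on LB plates. The plates were flooded with a suspension of approx. 10^8 cells/ml in 0.9% NaCl, and the excess was removed. Once the surface dried, five wells of 2 mm diameter were drilled per plate. The wells were filled with test compound dissolved in 0.9% NaCl, with plain 0.9% NaCl as control. After 18 h at 37° C., inhibition zone diameters were measured and converted to growth inhibition areas in square mm.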

[4] = test system: Pseudomonas aeruginosa ATCC 27853; test: as above; format: cell-based; settings: Ps. aeruginosa ATCC 27853
Procedure, shortened: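 Pseudomonas aeruginosa ATCC 27853 was tested for direct antibacterial susceptibility by agar well diffusion. A suspension of about 10^8 cells/ml in 0.9% NaCl was spread over LB agar and the excess removed. After drying, 2 mm wells were drilled and filled with compound dissolved in 0.9% NaCl, with NaCl alone as control. Plates were incubated 18 h at 37° C, and inhibition zone diameters were measured and converted to areas in square mm.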

[5] = test system: Ps. aeruginosa ATCC 27853; test: Sensitization to rifampin: well diffusion growth inhibition on LB plates containing rifampin; format: cell-based, Pseudomonas aeruginosa; settings: 4 μg of compound
K. pneumoniae F136 = test: E-test MIC of antibiotics on Mueller-Hinton agar with or without NAB7061 (4 μg/ml); sensitization factor = MIC ratio absence/presence; format: cell-based, Klebsiella pneumoniae
Method: as §1, §2

K. pneumoniae CCUG45421 = test: as above; format: cell-based, Klebsiella pneumoniae; settings: NAB 7061 4 μg/ml
Method: as §1, §2

K. pneumoniae F145 = test: as above; format: cell-based, Klebsiella pneumoniae
Method: as §1, §2

K. pneumoniae F144 = test: as above; format: cell-based, Klebsiella pneumoniae
Method: as §1, §2

E. coli CCUG41427 = test: as above; format: cell-based, Escherichia coli
Method: as §1, §2

## CCCCCCCC(=O)N[C@H](C(=O)N[C@@H](CC)C(=O)N[C@H]1CCNC(=O)[C@H]([C@@H](C)O)NC(=O)[C@H](CCN)NC(=O)[C@H](CCN)NC(=O)[C@H](CC(C)C)NC(=O)[C@@H](Cc2ccccc2)NC(=O)[C@H](CCN)NC1=O)[C@@H](C)O [NAB 7061, OA-Thr-Abu-cy[Dab-Dab-DPhe-Leu-Dab-Dab-Thr-]] (Octanoyl-T[Abu][Dab][Dab][dF]L[Dab][Dab]T; lactam 3-C)
S. maltophilia ATCC17444
  MIC of rifampin in the presence of 4 μg/ml of NAB 7061: 2 µg/mL
[1]; rat, in vivo, 16 mg/kg/day
  Rise of blood urea nitrogen (BUN) versus control or low dose group: no such a rise was found
[1]; rat, in vivo, iv
  Lowest dose that negatively influenced the body weight gain: 8 mg/kg per day
[1]; rats, doses 1 to 32 mg/kg per day intravenously for two weeks
  Survival throughout the study: all rats receiving NAB7061 remained alive throughout the study
[1]; rats, two weeks intravenous dosing
  General pathology and histopathology of organs and kidneys: No NAB7061-related pathological findings were found
E. coli IH3080 (K1:O18)
  CFU counts in peritoneal fluid: 1.1 (±0.6)×10^6 per ml
[2]
  Sensitization factor to azithromycin: 31-94
  Sensitization factor to clarithromycin: 63-380
A. baumannii ATCC 19606; rifampin 0 μg/ml
  Antibacterial activity in the presence of rifampin (growth inhibition area around a well): 0 square millimeters
A. baumannii ATCC 19606; rifampin 0.1 μg/ml
  Antibacterial activity in the presence of rifampin (growth inhibition area around a well): 28 square millimeters
A. baumannii ATCC 19606; rifampin 0.3 μg/ml
  Antibacterial activity in the presence of rifampin (growth inhibition area around a well): 50 square millimeters
E. cloacae F230
  MIC of clarithromycin in the presence of 4 μg/ml of NAB 7061: 0.047 µg/mL
  MIC of rifampin in the presence of 4 μg/ml of NAB 7061: 0.016 to 0.032 µg/mL
E. cloacae CCUG52947
  MIC of rifampin in the presence of 4 μg/ml of NAB 7061: 0.032 to 0.047 µg/mL
E. cloacae CCUG52947; NAB 7061 4 μg/ml
  Sensitization factor to rifampin: 500-1000
E. cloacae F232
  MIC of clarithromycin in the presence of 4 μg/ml of NAB 7061: 0.094 µg/mL
  MIC of rifampin in the presence of 4 μg/ml of NAB 7061: 0.023 µg/mL
S. marcescens ATCC8100
  MIC of rifampin in the presence of 4 μg/ml of NAB 7061: 16 µg/mL
[3]; 4 μg per well
  Antibacterial activity (growth inhibition area around a well): 0 square millimeters
[3]; 10 μg per well
  Antibacterial activity (growth inhibition area around a well): 0 square millimeters
[4]; 4 μg per well
  Antibacterial activity (growth inhibition area around a well): 0 square millimeters
[4]; 10 μg per well
  Antibacterial activity (growth inhibition area around a well): 0 square millimeters
[5]; rifampin 0 μg/ml
  Antibacterial activity in the presence of rifampin (growth inhibition area around a well): 0 square millimeters
[5]; rifampin 0.1 μg/ml
  Antibacterial activity in the presence of rifampin (growth inhibition area around a well): 0 square millimeters
[5]; rifampin 0.3 μg/ml
  Antibacterial activity in the presence of rifampin (growth inhibition area around a well): 0 square millimeters
K. pneumoniae F136
  MIC of clarithromycin in the presence of 4 μg/ml of NAB 7061: 2 µg/mL
  MIC of rifampin in the presence of 4 μg/ml of NAB 7061: 0.75 µg/mL
K. pneumoniae CCUG45421
  Sensitization factor to rifampin: 10-20
K. pneumoniae F145
  MIC of clarithromycin in the presence of 4 μg/ml of NAB 7061: 0.25 µg/mL
  MIC of rifampin in the presence of 4 μg/ml of NAB 7061: 0.19 to 0.25 µg/mL
K. pneumoniae F144
  MIC of rifampin in the presence of 4 μg/ml of NAB 7061: 0.19 µg/mL
K. pneumoniae F144; NAB 7061 4 μg/ml
  Sensitization factor to rifampin: >170
E. coli CCUG41427
  MIC of clarithromycin in the presence of 4 μg/ml of NAB 7061: 0.064 µg/mL
  MIC of rifampin in the presence of 4 μg/ml of NAB 7061: 0.032 to 0.064 µg/mL
E. coli CCUG41427; NAB 7061 4 μg/ml
  Sensitization factor to rifampin: 100-250
